The source of these data is BindingDB's records for doi:10.1016/s0960-894x(01)00011-7 (Institute, 2001).

The first experiment can be described thus: Inhibitory activity against non-nucleoside reverse transcriptase inhibitors (NNRTI) -resistant HIV-1 strain A17 with a Y181C mutation in reverse transcriptase.
The IC50 is the concentration that gives 50% inhibition. Read a low IC50 as higher potency. The molecule `S=C(NCCc1cccs1)Nc1nccs1` [1-Thiazol-2-yl-3-(2-thiophen-2-yl-ethyl)-thiourea] returned an IC50 above 100000 nM.

Another experiment in a line: Inhibitory activity against non-nucleoside reverse transcriptase inhibitors (NNRTI) -resistant HIV-1 strain A17 with a Y181C mutation in RT (reverse transcriptase).
Molecule `S=C(NCCC1=CCCCC1)Nc1nccs1` [1-(2-Cyclohex-1-enyl-ethyl)-3-thiazol-2-yl-thiourea] yielded an IC50 of 900 nM.
The molecule `S=C(NCCOc1ccccc1)Nc1nccs1` [1-(2-Phenoxy-ethyl)-3-thiazol-2-yl-thiourea] gave an IC50 of 4400 nM.
Regarding `S=C(NCC12CC3CC(CC(C3)C1)C2)Nc1nccs1` [1-Adamantan-1-ylmethyl-3-thiazol-2-yl-thiourea], the IC50 was 600 nM.
In turn, `S=C(NCc1ccco1)Nc1nccs1` [1-Furan-2-ylmethyl-3-thiazol-2-yl-thiourea] came in with an IC50 of 2000 nM.
Molecule `Cc1ccc(CCNC(=S)Nc2nccs2)cc1` [1-Thiazol-2-yl-3-(2-p-tolyl-ethyl)-thiourea] registered an IC50 of 3900 nM.
`S=C(NCCc1c[nH]c2ccccc12)Nc1nccs1` [1-[2-(1H-Indol-3-yl)-ethyl]-3-thiazol-2-yl-thiourea] registered an IC50 of 2200 nM.

Test in another experiment: as above
The source holds these as a separate data set.
As to `CCC(NC(=S)Nc1nccs1)c1ccccc1` (stereo not given) [1-(1-Phenyl-propyl)-3-thiazol-2-yl-thiourea], half-maximal inhibition (IC50) was put at 2100 nM.
The same measure, in the same setting: the same measure for `S=C(NCCc1cccs1)Nc1ccc(Br)cn1` [1-(5-Bromo-pyridin-2-yl)-3-(2-thiophen-2-yl-ethyl)-thiourea]: 48 nM.
Molecule `Oc1ccc(CCNC(=S)Nc2ccc(Br)cn2)cc1` [1-(5-Bromo-pyridin-2-yl)-3-[2-(4-hydroxy-phenyl)-ethyl]-thiourea] yielded an IC50 of 70 nM.
